Experiment [1] deals with T1, Transcriptional coactivator YAP1 (Homo sapiens, UniProt P46937). In words: Inhibition of YAP in HEK293T cells incubated for 24 hrs by Promega Dual-Luciferase Reporter Assay.
Experiment [2] deals with T1, Transcriptional coactivator YAP1. In words: Inhibition of YAP (unknown origin) incubated for 24 hrs by Promega Dual-Luciferase Reporter Assay.

T1 sequence (P46937 whole entry): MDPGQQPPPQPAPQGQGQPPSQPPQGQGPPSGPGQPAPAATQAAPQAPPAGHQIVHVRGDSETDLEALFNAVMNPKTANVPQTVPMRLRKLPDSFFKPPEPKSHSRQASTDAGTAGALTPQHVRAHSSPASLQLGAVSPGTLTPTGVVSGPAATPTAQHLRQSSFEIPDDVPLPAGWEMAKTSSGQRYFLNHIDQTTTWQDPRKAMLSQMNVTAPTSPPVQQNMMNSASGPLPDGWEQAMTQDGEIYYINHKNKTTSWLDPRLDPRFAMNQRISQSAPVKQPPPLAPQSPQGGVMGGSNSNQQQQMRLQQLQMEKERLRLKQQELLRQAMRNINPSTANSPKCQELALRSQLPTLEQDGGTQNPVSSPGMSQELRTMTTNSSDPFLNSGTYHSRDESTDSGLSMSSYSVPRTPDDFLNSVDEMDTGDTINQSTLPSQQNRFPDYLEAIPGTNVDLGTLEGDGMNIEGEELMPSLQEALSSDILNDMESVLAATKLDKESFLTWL

`CC(C)NC(=O)c1ccc2c(Oc3cccc(Cl)c3)cccc2c1` [5-(3-chlorophenoxy)-N-isopropyl-2-naphthamide]: in experiment [1], the 50% inhibitory concentration (IC50) is under 100 nM.
The same measure, in the same setting: the result for `N#CCNC(=O)c1ccc2c(Oc3ccc(C(F)(F)F)cc3)cccc2c1` [N-(cyanomethyl)-5-(4-(trifluoromethyl)phenoxy)-2-naphthamid] reads under 100 nM.
On the same count and under the same terms, the value for `CS(=O)(=O)NC(=O)c1ccc2c(Oc3ccc(C(F)(F)F)cc3)cccc2c1` [N-(methylsulfonyl)-5-(4-(trifluoromethyl)phenoxy)-2-naphthamide] was under 100 nM.
For `CNS(=O)(=O)c1ccc(Nc2ccc(C(F)(F)F)cc2)c(-c2cn(C)cn2)c1`, the IC50 in experiment [2] worked out at 1 nM.
Take `CC(NC(=O)c1cc2nc(N(C)C)n(-c3ccc(Br)cc3)c2s1)c1ccccn1` (stereo unspecified): the IC50 in experiment [2] came out at 391 nM.
`COC(=O)c1cc(S(N)(=O)=O)ccc1NC1CCCCC1` returned a 50% inhibitory concentration (IC50) in experiment [2] of 454 nM.

For the origin of these results see BindingDB's records for doi:10.1016/j.ejmech.2022.114684 (Shanghai Institute of Materia Medica, 2022).
